{"source": "ChEMBL document CHEMBL5380857", "about": "“Discovery of Potent, Selective, and Orally Bioavailable Small-Molecule Inhibitors of CDK8 for the Treatment of Cancer” (J Med Chem, 2023)", "key": {"[1]": {"target": "CDK8/Cyclin C (Homo sapiens, UniProt P49336)", "experiment": "Inhibition of His tagged human recombinant CDK8/Cyclin C expressed in baculovirus expression system incubated for 15 mins by FRET-based LanthaScreen binding competition assay"}, "[2]": {"experiment": "Metabolic stability in rat liver microsomes assessed as intrinsic clearance at 1 uM preincubated for 10 mins followed by NADPH addition and measured for 60 mins by LC-MS/MS analysis", "assay_type": "ADME, Microsome", "details": "read-out: CLH"}, "[3]": {"experiment": "Metabolic stability in human liver microsomes assessed as intrinsic clearance at 1 uM preincubated for 10 mins followed by NADPH addition and measured for 60 mins by LC-MS/MS analysis", "assay_type": "ADME, Microsome", "details": "read-out: CLH"}, "[4]": {"experiment": "Volume of distribution in CD-1 mouse at 5 mg/kg, po or 1 mg/kg, iv administered as single dose and measured for 24 hrs by LC-MS/MS analysis", "assay_type": "ADME, organism-based", "details": "in vivo"}, "[5]": {"experiment": "Bioavailability in CD-1 mouse at 5 mg/kg, po or 1 mg/kg, iv administered as single dose and measured for 24 hrs by LC-MS/MS analysis", "assay_type": "ADME, organism-based", "details": "in vivo"}, "[6]": {"target": "Dual specificity protein kinase CLK2 (Homo sapiens, UniProt P49760)", "sequence (P49760 whole entry)": "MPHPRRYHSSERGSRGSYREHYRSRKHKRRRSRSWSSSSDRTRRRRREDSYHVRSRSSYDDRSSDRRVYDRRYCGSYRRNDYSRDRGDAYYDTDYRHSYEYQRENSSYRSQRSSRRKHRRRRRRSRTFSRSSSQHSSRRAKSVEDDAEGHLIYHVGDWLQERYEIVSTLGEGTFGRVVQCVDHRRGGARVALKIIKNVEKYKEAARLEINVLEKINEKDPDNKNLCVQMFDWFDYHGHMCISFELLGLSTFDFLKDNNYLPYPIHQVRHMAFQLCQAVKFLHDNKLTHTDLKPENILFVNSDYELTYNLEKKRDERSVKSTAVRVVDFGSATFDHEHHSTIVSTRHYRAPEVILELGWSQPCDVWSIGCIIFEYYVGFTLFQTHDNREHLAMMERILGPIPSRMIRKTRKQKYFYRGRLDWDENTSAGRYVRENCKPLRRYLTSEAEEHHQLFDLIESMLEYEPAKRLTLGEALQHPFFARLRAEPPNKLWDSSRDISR", "experiment": "Binding affinity to CLK2 (unknown origin) assessed as dissociation constant by competitive binding assay"}, "[7]": {"target": "Dual specificity tyrosine-phosphorylation-regulated kinase 1B (Homo sapiens, UniProt Q9Y463)", "sequence (Q9Y463 whole entry)": "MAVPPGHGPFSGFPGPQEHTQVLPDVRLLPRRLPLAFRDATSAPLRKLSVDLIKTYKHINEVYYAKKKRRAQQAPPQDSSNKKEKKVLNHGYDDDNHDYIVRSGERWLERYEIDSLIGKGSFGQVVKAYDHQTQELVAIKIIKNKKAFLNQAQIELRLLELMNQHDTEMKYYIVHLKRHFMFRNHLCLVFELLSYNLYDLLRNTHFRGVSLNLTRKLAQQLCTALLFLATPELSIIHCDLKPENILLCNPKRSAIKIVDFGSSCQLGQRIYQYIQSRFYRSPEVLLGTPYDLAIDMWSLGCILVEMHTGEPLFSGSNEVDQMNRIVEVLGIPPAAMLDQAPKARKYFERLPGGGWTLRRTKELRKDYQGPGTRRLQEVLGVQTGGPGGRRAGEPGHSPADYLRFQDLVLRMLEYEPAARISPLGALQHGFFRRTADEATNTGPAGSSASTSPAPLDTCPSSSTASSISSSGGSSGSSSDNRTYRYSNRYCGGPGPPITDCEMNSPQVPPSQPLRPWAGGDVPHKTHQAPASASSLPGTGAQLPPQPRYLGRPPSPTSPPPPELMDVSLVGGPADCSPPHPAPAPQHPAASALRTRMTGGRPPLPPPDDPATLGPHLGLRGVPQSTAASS", "experiment": "Binding affinity to DYRK1B (unknown origin) assessed as dissociation constant by competitive binding assay"}, "[8]": {"target": "Glycogen synthase kinase-3 alpha (Homo sapiens, UniProt P49840)", "sequence (P49840 whole entry)": "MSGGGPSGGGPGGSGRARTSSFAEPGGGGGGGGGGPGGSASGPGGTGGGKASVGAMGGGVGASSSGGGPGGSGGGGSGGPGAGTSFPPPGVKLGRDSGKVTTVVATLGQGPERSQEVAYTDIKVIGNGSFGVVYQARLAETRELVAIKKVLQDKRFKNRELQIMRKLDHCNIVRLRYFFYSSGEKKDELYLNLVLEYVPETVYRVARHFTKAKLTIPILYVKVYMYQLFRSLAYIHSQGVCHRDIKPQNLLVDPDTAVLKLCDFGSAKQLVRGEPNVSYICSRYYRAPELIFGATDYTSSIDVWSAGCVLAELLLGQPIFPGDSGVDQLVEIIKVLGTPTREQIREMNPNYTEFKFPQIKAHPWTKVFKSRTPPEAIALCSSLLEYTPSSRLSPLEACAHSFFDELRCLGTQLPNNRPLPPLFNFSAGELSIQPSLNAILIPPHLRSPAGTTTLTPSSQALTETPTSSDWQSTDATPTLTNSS", "experiment": "Binding affinity to GSK3A (unknown origin) assessed as dissociation constant by competitive binding assay"}, "[9]": {"target": "Cyclin-dependent kinase 19 (Homo sapiens, UniProt Q9BWU1)", "experiment": "Inhibition of CDK19 (unknown origin)"}, "[10]": {"system": "MV4-11", "experiment": "Induction of cell cycle arrest in human MV4-11 cells assessed as accumulation of cells at G0/G1 phase at 0.01 to 1 uM incubated for 48 hrs", "assay_type": "functional, cell-based", "details": "dose 0.01-1 µM"}, "[11]": {"system": "MV4-11", "experiment": "Induction of cell cycle arrest in human MV4-11 cells assessed as reduction in accumulation of cells at S phase at 0.01 to 1 uM incubated for 48 hrs", "assay_type": "functional, cell-based", "details": "dose 0.01-1 µM"}, "[12]": {"system": "MV4-11", "experiment": "Induction of cell cycle arrest in human MV4-11 cells assessed as reduction in accumulation of cells at G2/M phase at 0.01 to 1 uM incubated for 48 hrs", "assay_type": "functional, cell-based", "details": "dose 0.01-1 µM"}, "[13]": {"experiment": "Clearance in CD-1 mouse assessed as liver blood flow at 5 mg/kg, po or 1 mg/kg, iv administered as single dose and measured for 24 hrs by LC-MS/MS analysis", "assay_type": "ADME, organism-based", "details": "in vivo"}, "[14]": {"experiment": "Clearance in Sprague-Dawley rat assessed as liver blood flow at 5 mg/kg, po or 1 mg/kg, iv administered as single dose and measured for 24 hrs by LC-MS/MS analysis", "assay_type": "ADME, organism-based", "details": "in vivo"}, "[15]": {"experiment": "Volume of distribution in Sprague-Dawley rat at 5 mg/kg, po or 1 mg/kg, iv administered as single dose and measured for 24 hrs by LC-MS/MS analysis", "assay_type": "ADME, organism-based", "details": "in vivo"}, "[16]": {"experiment": "Bioavailability in Sprague-Dawley rat at 5 mg/kg, po or 1 mg/kg, iv administered as single dose and measured for 24 hrs by LC-MS/MS analysis", "assay_type": "ADME, organism-based", "details": "in vivo"}, "[17]": {"experiment": "Volume of distribution in Beagle dog at 1 mg/kg, po or 0.5 mg/kg, iv administered as single dose and measured for 24 hrs by LC-MS/MS analysis", "assay_type": "ADME, organism-based, Canis lupus familiaris", "details": "in vivo"}, "[18]": {"experiment": "Half life in Beagle dog at 1 mg/kg, po or 0.5 mg/kg, iv administered as single dose and measured for 24 hrs by LC-MS/MS analysis", "assay_type": "ADME, organism-based, Canis lupus familiaris", "details": "in vivo"}, "[19]": {"target": "Cytochrome P450 3A4 (Homo sapiens, UniProt P08684)", "sequence (P08684 whole entry)": "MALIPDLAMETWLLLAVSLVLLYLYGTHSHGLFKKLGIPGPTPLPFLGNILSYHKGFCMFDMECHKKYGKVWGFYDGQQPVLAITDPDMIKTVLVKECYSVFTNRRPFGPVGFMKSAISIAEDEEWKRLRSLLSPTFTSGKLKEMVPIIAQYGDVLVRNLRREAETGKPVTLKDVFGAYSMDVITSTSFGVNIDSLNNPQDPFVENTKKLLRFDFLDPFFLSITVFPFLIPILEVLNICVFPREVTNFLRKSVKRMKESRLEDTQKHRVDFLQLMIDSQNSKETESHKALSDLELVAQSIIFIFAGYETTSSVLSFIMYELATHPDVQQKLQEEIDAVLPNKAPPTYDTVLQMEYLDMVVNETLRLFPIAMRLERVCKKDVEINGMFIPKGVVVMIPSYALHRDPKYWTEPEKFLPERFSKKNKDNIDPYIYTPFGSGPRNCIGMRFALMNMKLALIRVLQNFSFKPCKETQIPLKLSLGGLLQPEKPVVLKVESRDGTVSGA", "experiment": "Inhibition of CYP3A4 in human liver microsomes using midazolam as substrate assessed as reduction in substrate hydroxylation incubated for 10 mins in presence of NADPH by LC-MS/MS analysis", "assay_type": "ADME, Microsome"}, "[20]": {"target": "T1, Cytochrome P450 1A2 (Homo sapiens, UniProt P05177)", "T1 sequence (P05177 whole entry)": "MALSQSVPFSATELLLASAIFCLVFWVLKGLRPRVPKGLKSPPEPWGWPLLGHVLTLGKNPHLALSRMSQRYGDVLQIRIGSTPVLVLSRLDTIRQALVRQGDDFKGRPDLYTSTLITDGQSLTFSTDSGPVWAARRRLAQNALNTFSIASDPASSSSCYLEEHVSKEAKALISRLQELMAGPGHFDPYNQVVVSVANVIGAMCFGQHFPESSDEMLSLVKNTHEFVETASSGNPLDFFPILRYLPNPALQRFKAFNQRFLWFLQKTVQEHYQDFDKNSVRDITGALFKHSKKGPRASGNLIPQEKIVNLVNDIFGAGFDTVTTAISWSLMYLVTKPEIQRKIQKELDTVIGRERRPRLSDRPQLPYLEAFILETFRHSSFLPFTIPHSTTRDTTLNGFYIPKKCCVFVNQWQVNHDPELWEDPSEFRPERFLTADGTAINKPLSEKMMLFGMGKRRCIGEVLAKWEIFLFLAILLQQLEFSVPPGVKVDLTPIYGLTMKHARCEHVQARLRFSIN", "experiment": "Inhibition of CYP1A2 in human liver microsomes using phenacetin as substrate assessed as reduction in substrate O-deethylation incubated for 10 mins in presence of NADPH by LC-MS/MS analysis", "assay_type": "ADME, Microsome"}, "[21]": {"target": "Cytochrome P450 2C9 (Homo sapiens, UniProt P11712)", "sequence (P11712 whole entry)": "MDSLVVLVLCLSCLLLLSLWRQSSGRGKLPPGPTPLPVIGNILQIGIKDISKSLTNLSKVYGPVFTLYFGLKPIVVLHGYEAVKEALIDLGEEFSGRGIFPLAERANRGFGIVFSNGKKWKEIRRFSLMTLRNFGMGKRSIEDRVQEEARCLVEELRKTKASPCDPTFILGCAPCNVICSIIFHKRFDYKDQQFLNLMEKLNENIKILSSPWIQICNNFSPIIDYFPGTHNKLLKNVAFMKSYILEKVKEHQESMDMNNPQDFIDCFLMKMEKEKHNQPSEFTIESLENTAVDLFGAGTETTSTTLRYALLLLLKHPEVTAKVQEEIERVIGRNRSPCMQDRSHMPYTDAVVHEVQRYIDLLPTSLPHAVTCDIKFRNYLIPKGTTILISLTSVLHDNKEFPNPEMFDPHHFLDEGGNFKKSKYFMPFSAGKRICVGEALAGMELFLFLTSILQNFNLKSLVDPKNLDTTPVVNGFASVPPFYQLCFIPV", "experiment": "Inhibition of CYP2C9 in human liver microsomes using diclofenac as substrate assessed as reduction in substrate hydroxylation incubated for 10 mins in presence of NADPH by LC-MS/MS analysis", "assay_type": "ADME, Microsome"}, "[22]": {"target": "Cytochrome P450 2C19 (Homo sapiens, UniProt P33261)", "sequence (P33261 whole entry)": "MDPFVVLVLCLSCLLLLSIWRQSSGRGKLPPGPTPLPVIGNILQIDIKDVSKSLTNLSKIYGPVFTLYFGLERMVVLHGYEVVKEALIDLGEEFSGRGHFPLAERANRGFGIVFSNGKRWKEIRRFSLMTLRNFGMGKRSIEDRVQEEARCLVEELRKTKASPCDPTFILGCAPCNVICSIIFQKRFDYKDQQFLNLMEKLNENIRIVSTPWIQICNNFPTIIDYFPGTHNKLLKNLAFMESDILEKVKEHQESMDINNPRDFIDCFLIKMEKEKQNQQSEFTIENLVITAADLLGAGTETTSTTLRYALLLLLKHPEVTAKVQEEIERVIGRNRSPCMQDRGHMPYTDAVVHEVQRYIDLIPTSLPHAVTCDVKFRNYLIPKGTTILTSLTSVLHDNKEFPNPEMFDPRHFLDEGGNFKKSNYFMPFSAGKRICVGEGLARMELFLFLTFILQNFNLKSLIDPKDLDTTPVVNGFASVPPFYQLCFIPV", "experiment": "Inhibition of CYP2C19 in human liver microsomes using S-mephenytoin as substrate assessed as reduction in substrate hydroxylation incubated for 10 mins in presence of NADPH by LC-MS/MS analysis", "assay_type": "ADME, Microsome"}, "[23]": {"target": "Voltage-gated inwardly rectifying potassium channel KCNH2 (Homo sapiens, UniProt Q12809)", "sequence (Q12809 whole entry)": "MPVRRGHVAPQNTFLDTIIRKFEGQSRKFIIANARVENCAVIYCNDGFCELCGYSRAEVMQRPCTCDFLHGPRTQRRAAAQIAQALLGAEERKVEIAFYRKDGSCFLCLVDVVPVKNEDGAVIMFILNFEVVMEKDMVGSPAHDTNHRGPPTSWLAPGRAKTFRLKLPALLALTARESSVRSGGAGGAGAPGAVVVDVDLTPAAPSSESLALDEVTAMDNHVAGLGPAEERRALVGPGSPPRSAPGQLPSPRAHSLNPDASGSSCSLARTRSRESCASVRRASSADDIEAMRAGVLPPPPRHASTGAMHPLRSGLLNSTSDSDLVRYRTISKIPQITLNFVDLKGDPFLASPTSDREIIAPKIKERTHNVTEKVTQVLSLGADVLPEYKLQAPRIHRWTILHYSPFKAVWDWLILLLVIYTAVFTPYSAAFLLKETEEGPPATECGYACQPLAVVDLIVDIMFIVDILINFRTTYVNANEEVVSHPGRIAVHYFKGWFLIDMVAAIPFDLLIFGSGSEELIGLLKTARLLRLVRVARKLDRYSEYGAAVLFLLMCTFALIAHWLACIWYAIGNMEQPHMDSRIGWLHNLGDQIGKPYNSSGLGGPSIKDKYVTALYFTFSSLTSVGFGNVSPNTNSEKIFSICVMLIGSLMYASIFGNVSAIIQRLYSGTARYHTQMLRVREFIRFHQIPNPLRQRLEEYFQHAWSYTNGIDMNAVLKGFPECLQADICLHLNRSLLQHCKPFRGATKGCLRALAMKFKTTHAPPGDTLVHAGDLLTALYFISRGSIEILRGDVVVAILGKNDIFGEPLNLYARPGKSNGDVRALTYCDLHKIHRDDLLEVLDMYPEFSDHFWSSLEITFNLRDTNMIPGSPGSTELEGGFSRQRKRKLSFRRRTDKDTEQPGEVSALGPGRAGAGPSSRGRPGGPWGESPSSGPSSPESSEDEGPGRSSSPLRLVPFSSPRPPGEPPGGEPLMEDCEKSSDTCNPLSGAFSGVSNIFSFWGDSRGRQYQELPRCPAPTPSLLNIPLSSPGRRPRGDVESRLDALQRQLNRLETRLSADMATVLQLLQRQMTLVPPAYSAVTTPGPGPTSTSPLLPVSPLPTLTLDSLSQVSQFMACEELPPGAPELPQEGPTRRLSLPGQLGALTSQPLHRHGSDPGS", "experiment": "Inhibition of hERG expressed in CHO cells at -80 mV holding potential by whole cell patch clamp recording assay", "assay_type": "toxicity, cell-based"}, "[24]": {"system": "MV4-11", "experiment": "Antitumor activity against human MV4-11 cells xenografted in BALB/c nude mouse assessed as inhibition of tumor growth administered orally by gavage twice per day for 17 days and measured 3 times per week by caliper method", "assay_type": "functional, cell-based", "details": "dose 1-10 mg/kg, route po, time 17.0 day"}, "[25]": {"system": "MC-38", "experiment": "Antitumor activity against mouse MC-38 cells implanted in C57BL/6J syngeneic mouse model assessed as tumor growth inhibition at 3 mg/kg, po administered via gavage once daily for 21 days in presence of mPDL1 antibody administered twice per week and measured 3 times a week by caliper method relative to control", "assay_type": "functional", "details": "MC-38, 504 h, time 21 day, read-out: TGI"}, "[26]": {"experiment": "Antitumor activity against mouse LL2 cells implanted in C57BL/6J syngeneic mouse model assessed as tumor growth inhibition at 1 mg/kg, po administered via gavage twice daily for 14 days in presence of mPDL1 antibody administered twice per week and measured 3 times a week by caliper method relative to control", "assay_type": "functional", "details": "Lewis lung carcinoma, 336 h, time 14 day, read-out: TGI"}, "[27]": {"target": "Glycogen synthase kinase-3 beta (Homo sapiens, UniProt P49841)", "sequence (P49841 whole entry)": "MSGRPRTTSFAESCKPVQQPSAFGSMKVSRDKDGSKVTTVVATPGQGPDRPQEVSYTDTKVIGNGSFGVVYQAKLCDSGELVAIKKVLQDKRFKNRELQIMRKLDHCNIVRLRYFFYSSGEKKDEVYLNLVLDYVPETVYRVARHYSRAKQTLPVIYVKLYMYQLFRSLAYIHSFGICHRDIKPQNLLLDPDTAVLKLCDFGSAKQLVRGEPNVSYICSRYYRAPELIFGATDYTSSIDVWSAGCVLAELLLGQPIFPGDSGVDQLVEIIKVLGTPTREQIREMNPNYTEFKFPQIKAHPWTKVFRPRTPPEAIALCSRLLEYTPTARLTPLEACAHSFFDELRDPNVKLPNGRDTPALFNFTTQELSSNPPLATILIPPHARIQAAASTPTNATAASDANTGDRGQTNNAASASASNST", "description": "Binding affinity to GSK3B (unknown origin) assessed as dissociation constant by competitive binding assay"}}, "note": "Calls of active or inactive are those of the source. The calls are words filed in the database; no cut-off is given here.", "data": [{"smiles": "Cc1n[nH]c2ccc(-c3nnc(C)n3Cc3ccc(C(F)(F)F)cc3)cc12", "values": [{"measurement": "IC50", "setting": "[1]", "value": 0.0007, "unit": "µM"}, {"measurement": "CLint scaled at 1 µM", "setting": "[2]", "value": 1.79, "unit": "L/h/kg"}, {"measurement": "CLint scaled at 1 µM", "setting": "[3]", "value": "< 0.516", "unit": "L/h/kg"}, {"measurement": "Vd", "setting": "[4]", "value": 0.4, "unit": "L/kg"}, {"measurement": "bioavailability", "setting": "[5]", "value": 87.4, "unit": "%"}, {"measurement": "Kd", "setting": "[6]", "value": 0.068, "unit": "µM"}, {"measurement": "Kd", "setting": "[7]", "value": 2.7, "unit": "µM"}, {"measurement": "Kd", "setting": "[8]", "value": 0.24, "unit": "µM"}, {"measurement": "IC50", "setting": "[9]", "value": 0.002, "unit": "µM"}, {"measurement": "Activity", "setting": "[10]", "value": "Active"}, {"measurement": "Activity", "setting": "[11]", "value": "Active"}, {"measurement": "Activity", "setting": "[12]", "value": "Active"}, {"measurement": "LBF", "setting": "[13]", "value": 1.4, "unit": "%"}, {"measurement": "LBF", "setting": "[14]", "value": 27, "unit": "%"}, {"measurement": "Vd", "setting": "[15]", "value": 1.2, "unit": "L/kg"}, {"measurement": "bioavailability", "setting": "[16]", "value": 97.7, "unit": "%"}, {"measurement": "Vd", "setting": "[17]", "value": 0.5, "unit": "L/kg"}, {"measurement": "half-life", "setting": "[18]", "value": 4.6, "unit": "h"}, {"measurement": "IC50", "setting": "[19]", "value": "> 50", "unit": "µM"}, {"measurement": "IC50", "setting": "[20]", "value": "> 50", "unit": "µM"}, {"measurement": "IC50", "setting": "[21]", "value": 11.4, "unit": "µM"}, {"measurement": "IC50", "setting": "[22]", "value": 30.8, "unit": "µM"}, {"measurement": "IC50", "setting": "[23]", "value": "> 30", "unit": "µM"}, {"measurement": "inhibition", "setting": "[24]", "value": "Dose-Dependent Effect"}, {"measurement": "inhibition in vivo at 3 mg/kg", "setting": "[25]", "value": 80.4, "unit": "%"}, {"measurement": "inhibition in vivo at 1 mg/kg", "setting": "[26]", "value": 46.1, "unit": "%"}, {"measurement": "Kd", "setting": "[27]", "value": 0.21, "unit": "µM"}]}]}
